In patent US20230003721A1, “MITOTHERAPEUTICS FOR THE TREATMENT OF BRAIN DISORDERS” (The University of Florida Research Foundation, Inc., priority 2019, published 2023):
Counter-ions that a name gives are not always drawn. Like-named read-outs stand apart in the source and are kept apart here.

Experiments:
[1] = tested on: primary forebrain neurons; assay: cells; conditions: for EC50: Mus musculus, Neuron
Experimental: Primary forebrain cell culture and maintenance. Forebrains of P0 Mt or Mt/Ai14 pups without olfactory bulbs and meninges were collected and placed in ice cold Ca^2+ and Mg^2+ free HBSS supplemented with 2 μg/ml gentamicin, 25 mM D-glucose, 1 mM pyruvate and 20 mM HEPES. Brain tissue was digested with 0.6 mg/ml papain at 37° C. for 20 min. Forebrains were washed with plating media [Neurobasal (Gibco), 5% FBS, 4 mM GlutaMAX (Gibco), 2 μg/ml gentamicin]. The tissue was gently triturated, allowed to settle and the supernatant was filtered through a 40 μm mesh-sized cell strainer. Cells were centrifuged at 420×g for 4 min and resuspended in plating media. 15,000 cells per well were plated with 2×10^8 viral particles/ml onto black Greiner μClear (Cat #781946) or Ultra-Low Base Aurora with evaporation barrier (Cat #ABE201201B) 384-well plates (80 μl/well) pre-coated with poly-D-lysine for the primary screen and rescreen, respectively. Plating and media changes were performed using an automated Biomek FX^P liquid handling workstation. Four hr after plating, 75% of the plating media was replaced by feeding media [Neurobasal-A (Gibco), 4 mM GlutaMAX (Gibco), 2 μg/ml gentamicin, 2% B27 (Gibco)]. At DIV4, 50% of the media was exchanged with fresh feeding media supplemented with 16 μM 5-Fluoro-2′-deoxyuridine (FUdR) to prevent glial cell over-growth. At DIV8 and DIV12, additional 50% media changes were made without FUdR. Cells were maintained at 37° C. and 5% CO2; plates were topped with Breathe-Easy adhesive membranes (Greiner plates) to minimize evaporation.
Compounds and compound transfer.
Imaging. Images were captured using a GE Incell 6000 system (60× objective, 0.95 NA, 16-bit images) equipped with environmental control (37° C., 5% CO2). Mt-GFP (green channel) was imaged by confocal imaging (3 slices, Δz=0.7 μm, aperture=1.0 AU, λexc=488 nm, λem=515-535 nm). Cyto-tdTomato (red channel) and MitoTracker Orange (red channel) were imaged using confocal mode (3 slices, Δz=0.7 μm, aperture=1.0 AU, λexc=561 nm, λem=569-641 nm, MitoTracker Orange) or with widefield mode (Cyto-tdTomato). TMRM imaged for the co-localization experiments with Mt-GFP was imaged using the confocal mode (3 slices, […] aperture=1.0, λexc=488, λem=569-641 nm). For the live-dead assay, primary neurons were imaged with a 20× (widefield mode, NA 0.45) objective using λexc=561 nm and λem=569-641 nm for the propidium iodide stained dead cells (red channel), and λexc=488 nm and λem=515-535 nm for the fluorescein diacetate stained live cells (green channel). 10 fields were collected from each well, and 4 wells were imaged/condition in the live-dead assay. For all other experiments, 4 fields/well were imaged unless otherwise stated.
Automated data analysis pipeline. Most experiments utilized only Mt-GFP; some utilized both Mt-GFP and Cyto-tdTomato. The Z-projected images were preprocessed using a custom Fiji macro. For preprocessing of Mt-GFP images: background was subtracted (rolling ball, radius=3), images were median filtered (radius=1) and somatic mitochondria were removed. For removal of the somatic mitochondria, they were first segmented and then a somatic mitochondrial mask overlaid on the image.

primary neurons [2] = assay: TMRM fluorescence assay of inner mitochondrial membrane potential (ΔΨm); conditions: for TMRM Primary: primary screen; for TMRM Primary / TMRM Rescreen: 24 h; for Emax: read-out: TMRM (Effect-size); for EC50: read-out: TMRM-EC50; for TMRM (Effect-size): maximal percent increase relative to in-plate DMSO controls
primary neurons [3] = assay: CellTiter-Glo luminescence-based ATP assay; format: cell-based, mouse; conditions: for ATP: ATP orthogonal screen, 24 h; for EC50 / Emax / ATP (Effect-size): dose response; for EC50: 15 concentrations from 6 nM to 100 uM; for Emax / ATP (Effect-size): maximal percent increase relative to in-plate DMSO controls; for Emax: read-out: ATP (Effect-size)
In short: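 Primary neurons treated from DIV13 for 24 h with compound or DMSO. After part of the medium was removed, CellTiter-Glo reagent was added; plates were shaken 10 min at 200 rpm, kept 2 min in the dark at room temperature, and luminescence read as total ATP.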

[4] = rescreen, 12.5 μM, 24 h, vs DMSO wells
[5] = 24 h, read-out: Health (Ax Mt Circularity) EC50
[6] = 24 h, read-out: Mt Content (Dend Mt CA) EC50
[7] = 24 h, read-out: Elongation (Dend Mt length) EC50
[8] = 24 h, read-out: Sprouting (Neurite Area) EC50
[9] = dose response, 15 concentrations from 6 nM to 100 uM

Row | Compound | Dendritic Mt CA [1, 4] | Neurite Area [1, 4] | TMRM Primary (primary neurons [2]; 12.5 μM) | TMRM Rescreen (primary neurons [2]) | ATP (primary neurons [3]) | other results
1 | COc1cc(OC)c2c(c1)O[C@H](c1ccc(OC)c(OC)c1)[C@@H](O)C2 | 2.44 robust Z-scores | 1.87 robust Z-scores |  |  |  | 
2 | C[C@@H](N)[C@@H](O)c1ccccc1 [1R,2S-PHENYLPROPYLAMINE] | 3.14 robust Z-scores | 1.25 robust Z-scores |  |  |  | 
3 | O=C(/C=C/c1ccc(O)cc1)c1ccccc1O [2′,4-DIHYDROXYCHALCONE] | 2.57 robust Z-scores | 0.01 robust Z-scores |  |  |  | 
4 | O=C(/C=C/c1ccccc1)c1ccc(O[C@@H]2O[C@H](CO)[C@@H](O)[C@H](O)[C@H]2O)cc1O [2′,4′-DIHYDROXYCHALCONE 4′-GLUCOSIDE] | 4.44 robust Z-scores | −0.18 robust Z-scores |  |  |  | 
5 | O=c1c(O)c(-c2ccccc2)oc2cccc(O)c12 [3,5-DIHYDROXYFLAVONE] | 3.43 robust Z-scores | 1.20 robust Z-scores |  |  |  | 
6 | O=c1c(O)c(-c2ccccc2)oc2cc(O)ccc12 [3,7-DIHYDROXYFLAVONE] | 2.78 robust Z-scores | 1.37 robust Z-scores |  |  |  | 
7 | O=c1cc(-c2ccccc2)oc2ccc(O)cc12 [6-HYDROXYFLAVONE] | 2.88 robust Z-scores | 0.69 robust Z-scores |  |  |  | 
8 | COc1ccccc1-c1coc2cc(O)ccc2c1=O [7-HYDROXY-2′-METHOXYISOFLAVONE] |  |  |  |  |  | EC50 [1, 5]: 0.2 µM; EC50 [1, 6]: > 25 µM
9 | CC[C@@]1(O)C(=O)OCc2c1cc1n(c2=O)Cc2cc3cc(O)ccc3nc2-1 [10-HYDROXYCAMPTOTHECIN] | 2.23 robust Z-scores | 2.29 robust Z-scores |  |  |  | 
10 | CN1CCc2cccc3c2[C@H]1Cc1ccc(O)c(O)c1-3 [APOMORPHINE HYDROCHLORIDE] | 2.10 robust Z-scores | −0.07 robust Z-scores |  |  |  | 
11 | CCCC1O[C@@H]2C[C@H]3[C@@H]4CCC5=CC(=O)C=C[C@]5(C)[C@H]4[C@@H](O)C[C@]3(C)[C@]2(C(=O)CO)O1 (stereo partly shown) [BUDESONIDE] | 2.16 robust Z-scores | −0.61 robust Z-scores |  |  |  | 
12 | CCCCCOC(=O)Nc1nc(=O)n([C@@H]2O[C@H](C)[C@@H](O)[C@H]2O)cc1F [CAPECITABINE] | 2.88 robust Z-scores | 0.58 robust Z-scores |  |  |  | 
13 | CNC(=O)Oc1cccc2ccccc12 [CARBARIL] | 2.03 robust Z-scores | −0.48 robust Z-scores |  |  |  | 
14 | CC(C)CCC[C@@H](C)[C@H]1CC[C@H]2[C@@H]3CC=C4CC(=O)CC[C@]4(C)[C@H]3CC[C@]12C [CHOLEST-5-EN-3-ONE] | 2.78 robust Z-scores | −0.65 robust Z-scores |  |  |  | 
15 | C#CCN(C)CCCOc1ccc(Cl)cc1Cl [CLORGILINE HYDROCHLORIDE] | 4.33 robust Z-scores | −0.36 robust Z-scores |  |  |  | EC50 [1, 7]: 5 µM; EC50 [1, 5]: 0.3 µM; EC50 [1, 6]: 1 µM; EC50 [1, 8]: > 25 µM
16 | COc1ccc2c(c1)[C@]13CCCC[C@@H]1[C@H](C2)N(C)CC3 [DEXTROMETHORPHAN HYDROBROMIDE] |  |  |  |  |  | Dendritic Mt CA [1]: 2.38 robust Z-scores; Neurite Area [1]: 0.21 robust Z-scores
17 | C=C(C)c1cc2cc(C(C)=O)c(O)cc2o1 [EUPARIN] | 4.22 robust Z-scores | 1.17 robust Z-scores |  |  |  | 
18 | O=C(CCCN1CCC(O)(c2ccc(Cl)cc2)CC1)c1ccc(F)cc1 [HALOPERIDOL] | 2.99 robust Z-scores | −2.37 robust Z-scores |  |  |  | 

Row | Compound | Dendritic Mt CA [1, 4] | Neurite Area [1, 4] | TMRM Primary (primary neurons [2]; 12.5 μM) | TMRM Rescreen (primary neurons [2]) | ATP (primary neurons [3]) | other results
19 | FC(F)(F)C(Cl)Br (stereo not shown) [HALOTHANE] |  |  |  |  |  | Dendritic Mt CA [1]: 2.60 robust Z-scores; Neurite Area [1]: 2.65 robust Z-scores
20 | COc1ccc2c(c1)[nH]c1c(C)nccc12 [HARMINE] | 3.65 robust Z-scores | −1.63 robust Z-scores |  |  |  | EC50 [1, 7]: 1.7 µM; EC50 [1, 5]: > 25 µM; EC50 [1, 8]: > 25 µM
21 | CC[C@H]1CN2CC[C@H]1C[C@@H]2[C@@H](O)c1ccnc2ccc(OC)cc12 [HYDROQUINIDINE] | 2.19 robust Z-scores | −0.15 robust Z-scores |  |  |  | 
22 | CC1=C(/C=C/C(C)=C/C=C/C(C)=C\C(=O)O)C(C)(C)CCC1 [ISOTRETINON] | 2.69 robust Z-scores | 0.77 robust Z-scores |  |  |  | 
23 | Nc1nnc(-c2cccc(Cl)c2Cl)c(N)n1 [LAMOTRIGINE] | 4.75 robust Z-scores | 1.00 robust Z-scores |  |  |  | 
24 | CC12CC3CC(C)(C1)CC(N)(C3)C2 [MEMANTINE HYDROCHLORIDE] | 3.25 robust Z-scores | 1.45 robust Z-scores |  |  |  | confirmation in the re-screen ([1]; 12.5 μM, 10 replicate plates): weak hits
25 | CN(C)CCOc1ccc(/C(=C(/CCCl)c2ccccc2)c2ccccc2)cc1 [toremifene citrate] |  |  | 3.31 Z-scores | 7.05 Z-scores | 3.29 Z-scores | 
26 | CSc1nc2cc(Cl)c(Oc3cccc(Cl)c3Cl)cc2[nH]1 [triclabendazole] |  |  | 3.30 Z-scores | 3.61 Z-scores | 3.97 Z-scores | 
27 | OC(CCN1CCCCC1)(c1ccccc1)C1CCCCC1 (stereo not shown) [trihexyphenidyl hydrochloride] |  |  | 6.07 Z-scores | 7.08 Z-scores | 5.95 Z-scores | Emax (primary neurons [2]; Mus musculus, Primary neuron): 20%; EC50 (primary neurons [2]; Mus musculus, Primary neuron): 3.2 µM; EC50 (primary neurons [3]; Mus musculus, Primary neuron): 0.17 µM; Emax (primary neurons [3]; Mus musculus, Primary neuron): 17.8%
28 | CC(CN(C)C)CN1c2ccccc2CCc2ccccc21 (stereo not shown) [trimipramine maleate] |  |  | 5.18 Z-scores | 5.16 Z-scores | 5.24 Z-scores | Emax (primary neurons [2]; Mus musculus, Primary neuron): 20%; EC50 (primary neurons [2]; Mus musculus, Primary neuron): 0.36 µM; EC50 (primary neurons [3]; Mus musculus, Primary neuron): 0.18 µM; Emax (primary neurons [3]; Mus musculus, Primary neuron): 16.4%
29 | CCOC(=O)C1=C[C@]2(CC)CCCN3CCc4c(n1c1ccccc41)[C@@H]32 [vinpocetine] |  |  | 5.76 Z-scores | 6.16 Z-scores | 6.29 Z-scores | 
30 | acetophenazine maleate |  |  | 5.64 Z-scores | 5.34 Z-scores | 5.65 Z-scores | TMRM (Effect-size) (primary neurons [2]; dose response): 17.5%; EC50 (primary neurons [2]; [9]): 1.15 µM; EC50 (primary neurons [3]): 0.3 µM; ATP (Effect-size) (primary neurons [3]): 16.7%
31 | butacaine sulfate |  |  | 3.85 Z-scores | 5.06 Z-scores | 6.99 Z-scores | 
32 | carvedilol phosphate |  |  | 5.81 Z-scores | 5.43 Z-scores | 6.87 Z-scores | 
33 | colistin sulfate |  |  | 3.27 Z-scores | 5.24 Z-scores | 5.48 Z-scores | 
34 | pizotyline malate |  |  | 3.21 Z-scores | 5.84 Z-scores | 7.13 Z-scores | TMRM (Effect-size) (primary neurons [2]; dose response): 25.2%; EC50 (primary neurons [2]; [9]): 2.6 µM; EC50 (primary neurons [3]): 0.36 µM; ATP (Effect-size) (primary neurons [3]): 17.9%
35 | trimebutine maleate |  |  | 3.79 Z-scores | 5.82 Z-scores | 6.14 Z-scores | hit in TMRM primary screen when assayed at 4 h (primary neurons [2]; 12.5 μM, 4 h): trimebutine maleate*
36 | trimeprazine tartrate |  |  | 3.13 Z-scores | 3.94 Z-scores | 5.75 Z-scores | 
